Experimental findings from patent EP0302626A2, “Insecticidal compounds” (IMPERIAL CHEMICAL INDUSTRIES PLC, priority 1987, dated 1989) are described below.

Where “and” joins values, the source holds several entries; their conditions need not be identical. Equal values may be shown once.

Common to all, as to format: in vivo
For experiment [1], the system named is Blattella germanica (cockroach nymphs). As to the kind of experiment: insecticidal mortality test, residual, plastic pot. To be noted: 72 h, read-out: grading of mortality, BG. Summed up:
(§1)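 Mortality grades: A 80–100%, B 50–79%, C <50%, scored usually 1 to 3 days post-treatment. Test liquids held 500, 250 or 100 ppm by weight, prepared from acetone solution diluted into water with 0.01% wetting agent.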

Experiment [2] relates to Myzus persicae (aphids). As to the kind of experiment: insecticidal mortality test, contact, Chinese Cabbage leaf. The following applies: 72 h, read-out: grading of mortality, MP. Summed up:
(§2)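 Mortality, assessed 1–3 days post-treatment, is graded A 80-100%, B 50-79%, C <50%. Treatment applied to pests, their host plant or food medium, or both. Preparations at 500, 250 or 100 ppm made from acetone solutions diluted with water containing 0.01% wetting agent.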

The test system of experiment [3] is Nilaparvata lugens. The experiment in a line: insecticidal mortality test, Nephotettix cincticeps replaced by Nilaparvata lugens. To be noted: Nilaparvata lugens, in Oryza sativa, 72 h, read-out: grading of mortality, NC with Nilaparvata lugens. The method, then: The activity of the Product was determined using a variety of insect pests. The Product was used in the form of liquid preparations containing 500, 250 or 100 parts per million (ppm) by weight of the Product. The preparations were made by dissolving the Product in acetone and diluting the solutions with water containing 0.01% by weight of a wetting agent sold under the trade name "LlSSAPOL" NX until the liquid preparations contained the required concentration of the Product. "Lissapol" is a Registered Trade Mark.
The test procedure adopted with regard to each pest was basically the same and comprised supporting a number of the pests on a medium which was usually a host plant or a foodstuff on which the pests feed, and treating either or both the pests and the medium with the preparations. The mortality of the pests was then assessed at periods usually varying from one to three days after the treatment.
The results of the tests are given in Table III for each of the Products, at the rate in parts per million given in the second column as a grading of mortality designated as A, B or C wherein A indicates 80-100% mortality, B indicates 50-79% mortality and C indicates less than 50% mortality.
In Table 111 the pest organism used is designated by a letter code and the pests species, the support medium or food, and the type and duration of test is given in Table II.

For experiment [4], the system named is Musca domestica (adult females). As to the kind of experiment: Musca domestica knockdown test. The following applies: 1 cm3 of 30 ppm solution in acetone, Kearns and March chamber, 20 adult females, observed over 10 minutes; average of 2 replicates (* single replicate, ** average of 7 tests). As to the method: 1 cm³ Of a 30 ppm solution of the test chemical in acetone was sprayed into a Kearns and March chamber containing 20 Musca domestica (adult females). Knockdown was observed over a period of 10 minutes and KT₅₀ and KT₉₀ values (the time taken for 50% and 90% of the insects to be knocked down) were calculated from the observations. The results given in Table V represent average KT values of 2 replicates except where otherwise stated.

Experiment [5] deals with Tetranychus urticae (spider mites - adult). The experiment in a line: insecticidal mortality test, contact, French bean leaf. The following applies: Tetranychus urticae, 72 h, read-out: grading of mortality, Tua, 100 ppm, 3 days. The gist of the method: as §2
Experiment [6] deals with Blattella germanica (adult males). As to the kind of experiment: Blattella germanica knockdown test. To be noted: 250 ppm in kerosene, 1 cm3 sprayed onto 10 adult males, tests 1 and 2 are repeats. Summed up:
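Adult male German cockroaches, 10 per pot, sprayed in a Potter tower with 250 ppm compound in acetone/kerosene. Knockdown scored every 5 min to 20 min (sometimes 1–4 min, giving KT50/KT90); mortality after 48 h at 25°C, 65% RH; tests repeated.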

Experiment [7] relates to Spodoptera exigua (lesser army worm - larvae). The experiment in a line: insecticidal mortality test, residual, cotton leaf. The following applies: 72 h, read-out: grading of mortality, SP. The gist of the method:
as §2

Experiment [8] deals with Heliothis virescens (tobacco budworm - larvae). As to the kind of experiment: insecticidal mortality test, residual, cotton leaf. The following applies: 72 h, 100 ppm, residual, cotton leaf, 3 days, read-out: grading of mortality, HV. Summed up:
as §1

For experiment [9], the system named is Musca domestica (houseflies - adults). The experiment in a line: insecticidal mortality test, contact, cotton wool/sugar. The following applies: 24 h, read-out: grading of mortality, MD. Summed up:
as §2

The subject of experiment [10] is Diabrotica balteata (rootworm larvae). The experiment in a line: insecticidal mortality test, residual, filter paper/maize seed. The following applies: 72 h, read-out: grading of mortality, DB. The gist of the method:
as §2

With `CC1(C)C(C=C(Cl)C(F)(F)F)C1C(=O)OCc1c(F)c(F)c(CF)c(F)c1F` (racemic) [Product II, 4-(Fluoromethyl)-2,3,5,6-tetrafluorobenzyl (1RS,cis)-3-(Z-2-chloro-3,3,3-trifluoroprop-1-en-1-yl)-2,2-dimethyl-cyclopropanecarboxylate], the mortality at 100 ppm in experiment [1] was 80 to 100%; in [2] it was 80 to 100%; in experiment [3], 80 to 100%; in experiment [5], less than 50%; in [7], 80 to 100%; in experiment [8] it was 80 to 100%. The mortality at 100 ppm in experiment [9] and in experiment [10] was 80 to 100% each time. For the same molecule, the KT₅₀ in experiment [4] is 2.7 min. In experiment [4], the KT₉₀ worked out at 5.0 min. Moreover, the “% KNOCKDOWN OBSERVED 15 min” value in experiment [6] (15 min) was 90% and 100%. In addition, the “% KNOCKDOWN OBSERVED 20 min” value in experiment [6] (20 min) came out at 90%. In addition, the pest or weed control at 250 ppm in experiment [6] (Blattella germanica, topical, 10 min, 10 min, Tetramethrin: mean of 27 observations, read-out: % KNOCKDOWN OBSERVED 10 min) stood at 60%.

Broadly, the mortality is the share of the test organisms that died.
